Here are results for 4 molecules from paper PMC12316928, “Synthesis and evaluation of novel thiohydantoin derivatives for antidiabetic activity using in silico in vitro and in vivo methods” (Scientific Reports, 2025).

Values after ≈ are worked out from the molar mass of the structure shown. Values joined by “and” are separate entries in the source; they are usually repeats but may differ in a detail not shown here. Equal entries are not always repeated. “Also recorded” adds a separate entry of the source. Where two headings read alike, the source gives them in different places. Some results are limits rather than exact numbers.

Series [1] addresses T1, α-amylase (Sus scrofa, UniProt P00690).
T1 sequence (P00690 16-511): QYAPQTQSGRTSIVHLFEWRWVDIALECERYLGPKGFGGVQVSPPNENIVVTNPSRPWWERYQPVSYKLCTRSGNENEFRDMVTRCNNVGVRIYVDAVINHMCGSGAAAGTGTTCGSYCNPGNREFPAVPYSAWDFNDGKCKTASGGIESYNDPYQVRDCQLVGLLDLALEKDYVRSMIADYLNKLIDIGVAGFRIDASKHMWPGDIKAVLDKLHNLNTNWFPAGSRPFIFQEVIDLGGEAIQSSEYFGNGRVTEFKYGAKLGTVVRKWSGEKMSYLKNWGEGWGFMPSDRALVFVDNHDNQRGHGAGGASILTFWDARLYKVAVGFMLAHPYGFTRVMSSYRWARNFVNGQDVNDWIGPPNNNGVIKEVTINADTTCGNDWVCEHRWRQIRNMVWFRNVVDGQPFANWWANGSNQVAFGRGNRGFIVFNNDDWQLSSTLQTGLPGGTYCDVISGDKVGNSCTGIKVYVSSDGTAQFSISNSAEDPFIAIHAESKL
The series is described as follows: α-Amylase inhibitory activity assay (DNSA method). It counts as biochemical. As for the experimental part:
The inhibitory potential of the synthesized derivatives against α-amylase was determined using the DNSA (3,5-dinitrosalicylic acid) colorimetric method, as reported by Bernfeld[37]. The α-amylase enzyme (from Sigma-Aldrich) was prepared in 20 mM sodium phosphate buffer (pH 6.9). […] After incubation, 100 µL of DNSA reagent was added, and the mixture was heated at 85 °C for 15 min. The reaction was stopped by cooling, and the absorbance was measured at 595 nm. A blank control was prepared to adjust background absorbance, and the percentage inhibition was calculated.

The nature of series [2]: DPPH free radical scavenging assay. As to the method:
The antioxidant activity of synthesized compounds was evaluated using the DPPH free-radical scavenging assay, following the methodology outlined by[34]. This assay is based on the principle that the stable free radical DPPH undergoes a color change from deep purple to yellow upon reduction, indicating hydrogen donation from antioxidant compounds. Different concentrations (3.12, 6.25, 12.5, 25, 50, 100, and 200 µg/mL) of test compounds were prepared in methanol. A 200 µL aliquot of each concentration was mixed with 50 µL of freshly prepared DPPH solution (0.659 mM). The reaction mixtures were incubated at room temperature for 20 min in the dark. Absorbance was recorded at 510 nm using an ELISA microplate reader. Trolox was employed as the reference antioxidant, and the percentage of inhibition was calculated using the following equation:
% Inhibition = [(A0 − A1)/A0] × 100.
Where A0 is the absorbance of the control, and A1 is the absorbance of the sample[34].
A general note: The DPPH test is a chemical assay of radical scavenging.

Series [3] concerns the target T2, α-glucosidase (EC3.2.1.20) (Saccharomyces cerevisiae, UniProt P53341).
T2 construct: purchased Sigma-Aldrich
Nature of the series: α-Glucosidase inhibitory activity assay. In kind it is biochemical. The note with it: for inhibition at 200 µg/mL: read-out: %Inhibition (200 µg/ml) alpha glucosidase. As for the experimental part:
The ability of the synthesized compounds to inhibit α-glucosidase was determined as per the method described by[35]. […] After incubation at 37 °C for 10 min, the reaction was initiated by adding 25 µL of substrate (4 mM) and further incubating at 37 °C for 20 min. The absorbance was measured at 405 nm.

Series [4] can be described thus: Cytotoxicity MTT assay. In kind it is cell-based. Particulars: mouse, 3T3 fibroblast cells, 48 h, Mean ± SD, n = 3, read-out: IC₅₀ cytotoxicity MTT. As to the method:
(§1) The cytotoxic effects of the selected compounds were evaluated against the 3T3 fibroblast cell line (Sigma-Aldrich, product no. 90020107) using the MTT (3-(4,5-dimethylthiazol-2-yl)−2,5-diphenyl tetrazolium bromide) assay, following the protocol established by Mosmann[38]. A cell suspension containing 1 × 10⁵ cells per well was seeded into a 96-well plate and incubated at 37 °C with 5% CO₂ for 48 h. The cells were then treated with different concentrations of test compounds (4, 16, 63, 250, and 1000 µg/mL, dissolved in DMSO) and incubated for an additional 48 h. Following incubation, 180 µL of MTT solution (5 mg/mL in PBS) was added to each well and incubated for 4 h. The formazan crystals formed were solubilized, and absorbance was measured at 570 nm using an ELISA reader. Celecoxib was used as a positive control.

Series [5] relates to 3T3 fibroblast cell line. Nature of the series: Cytotoxicity MTT assay. It counts as cell-based. As to the method:
as §1
For orientation: Tetrazolium dyes change colour on reduction, which living cells bring about.

In series [6] the test system is STZ-induced diabetic rats. The series is described as follows: Fasting blood glucose and oral glucose tolerance test (OGTT). Particulars: for OGTT (after 120 min): 120 min after glucose 2.0 g/kg; for Fasting blood glucose: Table 7, mean ± SD, 5 rats per group; for FBG and OGTT reduction in words: compared to diabetic control. It counts as in vivo, Sprague Dawley rats. As to the method: […] After 5 days of streptozotocin injection, the tail vein blood will be collected to determine the fasting blood glucose (FBG) level. Only rats with FBG over 200 mg/dl will be considered diabetic and used for further experimentation.
This assay will be performed in animals after fasting for an overnight (12 h). Then, rats will receive a bolus of glucose (2.0 g/kg body weight) followed by test molecule or control and plasma glucose will be measured from blood collected from tail vein at 0, 30, 60, 90 and 120 min after glucose administration. Plasma glucose levels will be analyzed using commercially available glucometer kits[40].

Series [7] concerns STZ-induced diabetic rats. Nature of the series: Effect on FBG, body weight and HbA1C over 6 weeks. In kind it is in vivo, Sprague Dawley rats. On the set-up: % Reduction in FBG: concentration or dose not given beside the values. As to the method:
(§2) Diabetes will be induced in rats (n = 6 per group) by a single intraperitoneal injection of 60-100 mg/kg body weight (BW) streptozotocin dissolved in normal saline. After 5 days of streptozotocin injection, the tail vein blood will be collected to determine the fasting blood glucose (FBG) level. Only rats with FBG over 200 mg/dl will be considered diabetic and used for further experimentation.
Diabetic Rats (n = 6 per group) will be randomly assigned to groups of six animals each in order to examine the impact of synthetic derivatives on FBG level, BW, and HbA1C. The course of treatment will last for six weeks. At the beginning of the experiment and at weekly intervals during the first 42 days of therapy, the FBG level and BW will be measured. Rats will be denied food for 12 h while fasting, but they will have unrestricted access to water. Commercial glucose oxidase kits will be used to measure the blood glucose level. Blood 7 will be collected through cardiac puncture at the end of study period and levels of HbA1C will be determined. Metformin will be used as standard for comparison purpose.

Series [8] deals with STZ-induced diabetic rats. The series is described as follows: Physiological parameters (lipid profile). In kind it is in vivo, Sprague Dawley rats. Particulars: Fig. 1. As to the method:
as §2
Animals will be sacrificed after […] of treatment and parameters including LDL, triglycerides, HDL cholesterol, and glucose will be determined by using KONELAB SYSTEM (Thermo Fisher Scientific, Finland) according to manufacturer’s guidelines.

T2 sequence (P53341 whole entry): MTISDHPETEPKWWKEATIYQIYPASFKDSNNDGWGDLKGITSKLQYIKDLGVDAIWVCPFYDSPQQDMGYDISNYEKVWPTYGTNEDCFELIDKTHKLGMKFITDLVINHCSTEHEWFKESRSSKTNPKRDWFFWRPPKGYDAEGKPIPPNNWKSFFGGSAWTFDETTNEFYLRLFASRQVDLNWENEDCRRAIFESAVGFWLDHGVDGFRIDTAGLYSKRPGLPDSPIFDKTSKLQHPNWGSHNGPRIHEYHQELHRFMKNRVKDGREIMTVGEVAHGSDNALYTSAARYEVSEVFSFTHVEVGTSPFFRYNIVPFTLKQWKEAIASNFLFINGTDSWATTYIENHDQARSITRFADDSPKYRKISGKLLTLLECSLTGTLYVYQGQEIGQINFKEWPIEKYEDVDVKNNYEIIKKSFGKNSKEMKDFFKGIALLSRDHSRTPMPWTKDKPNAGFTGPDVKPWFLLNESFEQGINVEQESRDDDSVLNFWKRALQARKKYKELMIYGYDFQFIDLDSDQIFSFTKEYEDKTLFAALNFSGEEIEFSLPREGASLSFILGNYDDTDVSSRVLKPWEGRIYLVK

In the case of `C[C@H]1O[C@H](O[C@H]2[C@H](O)[C@@H](O)[C@@H](O[C@H]3[C@H](O)[C@@H](O)C(O)O[C@@H]3CO)O[C@@H]2CO)[C@H](O)[C@@H](O)[C@@H]1N[C@H]1C=C(CO)[C@@H](O)[C@H](O)[C@H]1O` (some centres unmarked) [Acarbose, reference compound], in series [1] (positive control Acarbose 50 µg/ml, Mean ± SD), the “%Inhibition alpha amylase” value worked out at 92.23 ± 1.08%.
Turning to `Cc1ccc(S(=O)(=O)N2CC(=O)NC2=S)cc1` [FP3, 1-(4-methylbenzene-1-sulfonyl)−2-sulfanylideneimidazolidin-4-one], the “DPPH free radical scavenging % inhibition” value in series [2] (3.12 µg/mL) was determined as 9.2 ± 0.9%; in series [2] (6.25 µg/mL), 18.5 ± 1.4%; in series [2] (12.5 µg/mL), 27.9 ± 1.8%; in series [2] (25 µg/mL) it was 38.3 ± 2.1%; in series [2] (50 µg/mL) it was 45.7 ± 2.3%; in series [2] (100 µg/mL), 51.2 ± 2.5%. The “DPPH free radical scavenging % inhibition” value in series [2] (200 µg/mL) came to 55.8 ± 2.7%. Besides, in series [3], the “alpha-glucosidase inhibition in words” value was “inactive”. For the same molecule, in series [3] (sample concentration 200 µg/ml, Mean ± SD), the inhibition at 200 µg/mL turned out to be 29.4 ± 1.08%. The “alpha-amylase inhibition in words” value in series [1] is reported as “lack of inhibition”. Moreover, in series [4], the IC50 at 48 h was 722 ± 15.3 µg/mL (≈ 2670 µM). Further, in series [5], the Cytotoxicity category entry is reported as “Low cytotoxicity”. In addition, the “OGTT (after 120 min)” value in series [6] is recorded as 320.8 ± 11.3 mg/dL. The same molecule came in with a Fasting blood glucose in series [6] of 255.7 ± 9.0 mg/dL. The “FBG and OGTT reduction in words” value in series [6] was “minor reductions”.
Turning to `Cc1ccc(S(=O)(=O)N2CC(=O)NC2=S)cc1C(=O)O` [FP5, 2-methyl-5-(4-oxo-2-sulfanylideneimidazolidine-1-sulfonyl)benzoic acid], in series [2], the “IC₅₀ (concentration required to inhibit 50% of DPPH free radicals)” value stood at 58.1 ± 2.6 µg/mL. In addition, the “DPPH free radical scavenging % inhibition” value in series [2] (3.12 µg/mL) is recorded as 17.8 ± 1.2%. Besides, in series [2] (6.25 µg/mL), the “DPPH free radical scavenging % inhibition” value came out at 29.6 ± 1.7%. Besides, in series [2] (12.5 µg/mL), the “DPPH free radical scavenging % inhibition” value came out at 44.5 ± 2.3%. Moreover, in series [2] (25 µg/mL), the “DPPH free radical scavenging % inhibition” value is 58.7 ± 2.6%. Besides, in series [2] (50 µg/mL), the “DPPH free radical scavenging % inhibition” value was found to be 69.3 ± 2.9%. Besides, the “DPPH free radical scavenging % inhibition” value in series [2] (100 µg/mL) was determined as 73.1 ± 3.1%. The “DPPH free radical scavenging % inhibition” value in series [2] (200 µg/mL) came to 78.9 ± 3.3%. In series [3], the “alpha-glucosidase inhibition in words” value was “inactive” and the inhibition at 200 µg/mL is 33.2 ± 0.87%. Moreover, in series [4], the IC50 at 48 h stood at 690 ± 13.2 µg/mL (≈ 2190 µM). Moreover, in series [5], the Cytotoxicity category result is reported as “Low cytotoxicity”. In series [7] (Day 0, baseline), the “BW (Day 0)” value was 216.8 ± 8.1 g and the “FBG (Day 0)” value amounted to 281.0 ± 9.9 mg/dL. In addition, in series [7] (Day 0 to Day 42), the “% Change in BW” value is on record as −7.7% and the “% Reduction in FBG” value turned out to be 21.6%. For the same molecule, in series [7] (Day 42 of treatment), the “BW (Day 42)” value turned out to be 200.1 ± 8.5 g and the “FBG (Day 42)” value was found to be 220.2 ± 9.2 mg/dL. In series [7] (end of 6-week treatment), the HbA1C was 7.8% and 7.8 ± 0.3%. The “lipid profile effect in words” value in series [8] was “moderate improvements”. Moreover, in series [6], the “OGTT (after 120 min)” value turned out to be 295.3 ± 9.9 mg/dL; the Fasting blood glucose is recorded as 236.1 ± 8.1 mg/dL; the “FBG and OGTT reduction in words” value is listed as “significant reductions”. In addition, the “percentage reduction in FBG” value in series [6] (relative to positive control (diabetic rats), Fig. 2) is 16.3%.
For `O=C1CN(S(=O)(=O)c2cc(C(=O)O)ccc2Cl)C(=S)N1` [FP7, 4-chloro-3-(4-oxo-2-sulfanylideneimidazolidine-1-sulfonyl)benzoic acid], the “DPPH free radical scavenging % inhibition” value amounted to 7.6 ± 0.7% in series [2] (3.12 µg/mL); 14.8 ± 1.0% in series [2] (6.25 µg/mL); 21.5 ± 1.4% in series [2] (12.5 µg/mL); 30.2 ± 1.8% in series [2] (25 µg/mL); 39.5 ± 2.0% in series [2] (50 µg/mL); 43.7 ± 2.3% in series [2] (100 µg/mL). Besides, the “DPPH free radical scavenging % inhibition” value in series [2] (200 µg/mL) is reported as 47.2 ± 2.5%. Moreover, the “alpha-glucosidase inhibition in words” value in series [3] was “inactive”. Further, the inhibition at 200 µg/mL in series [3] came out at 27.3 ± 0.91%. Further, in series [1], the “alpha-amylase inhibition in words” value was “lack of inhibition”. The IC50 at 48 h in series [4] is over 900 µg/mL. Further, the Cytotoxicity category result in series [5] is “negligible cytotoxicity; also recorded: Non-toxic”. Besides, in series [5] (48 h, Mean ± SD, n = 3), the “IC₅₀ cytotoxicity MTT” value is over 1000 ± 0.0 µg/mL. In addition, the “OGTT (after 120 min)” value in series [6] is 325.0 ± 11.6 mg/dL. This molecule showed a Fasting blood glucose in series [6] of 258.2 ± 9.4 mg/dL. Moreover, in series [6], the “FBG and OGTT reduction in words” value is given as “minor reductions”.
